Here are results for 42 molecules from patent US20120071496A1, “Aminopyrimidinamides As Pest Control Agents” (Bayer CropScience AG, priority 2009, published 2012).

Tested on in one data set: not listed separately
Nature of the data set: logP (HCOOH). Type of data set: physicochemical. To be noted: HCOOH (formic acid); Table 2.
On to `CCc1ncccc1C(=O)Nc1c(NC2CC2)ncnc1-c1ccc(Cl)cc1` [1-177, N-[4-(4-Chlorophenyl)-6-cyclopropylaminopyemidin-5-yl]-2-ethylnicotinamide], for which the chromatographic logP came to 1.31.

Staying with this data set, now noted: HCOOH (formic acid); Table 4.
With `CCc1ncccc1C(=O)Nc1c(Cl)ncnc1NC1CC1` [3-1, N-(4-Chloro-6-cyclopropylaminopyrimidin-5-yl)-2-ethylnicotinamide], the chromatographic logP amounted to 0.79.

Staying with this data set, now noted: Table 2.
In the case of `CCc1ncccc1C(=O)Nc1c(NC2CC2)ncnc1-c1ccc(Cn2nc(C(F)(F)F)nc2C(F)(F)F)cc1` [1-258], the “logP (HCOOH)” value is 2.07.
Still for that read-out and setting: the same measure for `CCc1ncccc1C(=O)Nc1c(NC2CC2)ncnc1-c1ccc(Oc2ncc(C(F)(F)F)cc2Cl)cc1` [1-310]: 1.84; for `CCCc1ncccc1C(=O)Nc1c(NC2CC2)ncnc1-c1ccc(Cn2nc(C(F)(F)F)nc2C(F)(F)F)cc1` [1-264]: 1.9; for `O=C(Nc1c(NC2CC2)ncnc1-c1ccc(F)cc1F)c1cccnc1CC(F)(F)F` [1-254]: 1.83.

A further data set has as its system mustard beetle larvae (Phaedon cochleariae).
Assay: not given
To be noted: application rate 500 g/ha; sprayed Chinese cabbage leaf-disks; after 7 days. As for the experimental part:
Phaedon Cochleariae —Test; (Spray Application)
Chinese cabbage (Brassica pekinesis) leaf-disks are sprayed with a preparation of the active ingredient of the desired concentration. Once dry, the leaf disks are infested with mustard beetle larvae (Phaedon cochleariae).
After 7 days mortality in % is determined.
Consider `CCc1ccccc1C(=O)Nc1c(NC2CC2)nc(C)nc1-c1ccccc1` [1-280], for which the “mortality in % (beetle larvae killed)” value is given as 1-280%.

In another data set the test system is green peach aphid (Myzus persicae). Put plainly: whole plant or invertebrate. To be noted: in Brassica rapa, 144 h, read-out: mortality in % (aphids killed). As for the experimental part:
Myzus Persicae—Test; (Spray Application) 2
Solvent: 78.0 parts by weight acetone • 1.5 parts by weight dimethylformamide Emulsifier: 0.5 parts by weight alkylarylpolyglcolether
After 6 days mortality in % is determined.
Take `CCc1ncccc1C(=O)Nc1c(Cl)ncnc1NC1CC1` [3-1, N-(4-Chloro-6-cyclopropylaminopyrimidin-5-yl)-2-ethylnicotinamide]: the mortality at 500 g/ha was no less than 80%.

The test system of another data set is Spodoptera litura third instar larvae. Put plainly: Test against tobacco cutworm (Spodoptera litura) larvae. Type of data set: in vivo. To be noted: active compound concentration 100 ppm; immersed sweet potato leaves; after 7 days.
Protocol: Unless not mentioned otherwise, the test solutions were prepared as follows:
Containing as solvent: Dimethylformamide, 3 parts by weight; and as emulsifier: Polyoxyethylene alkyl phenyl ether, 1 part by weight
Test Against Tobacco Cutworm (Spodoptera litura) Larvae
Leaves of sweet potato were immersed in the test solution at the appropriate concentration, and the leaves were dried in air. The leaves were then placed in a petri dish having a diameter of 9 cm, and ten Spodoptera litura at third instar larvae were released therein. The petri dishes were placed in a temperature-controlled chamber at 25° C. After 2 days and 4 days more sweet potato leaves were added. After 7 days, the number of dead larvae was counted to calculate the insecticidal activity. An insecticidal activity of 100% means that all larvae were killed, whereas an insecticidal activity of 0% means that no larva was killed.
Turning to `CCc1ncccc1C(=O)Nc1c(NC2CC2)ncnc1-c1ccc(Oc2nc(C(F)(F)F)cc(C(F)(F)C(F)(F)F)n2)cc1` [1-317], the insecticidal activity was 100%.
Take `O=C(Nc1c(NC2CC2)nc(Cl)nc1-c1ccc(F)cc1)c1cccnc1CC(F)(F)F` [1-325]: the insecticidal activity was found to be 100%.
`CCc1ncccc1C(=O)Nc1c(NC2CC2)ncnc1-c1ccc(Cl)cc1` [1-177, N-[4-(4-Chlorophenyl)-6-cyclopropylaminopyemidin-5-yl]-2-ethylnicotinamide] returned an insecticidal activity of 100%.
Same read-out and setting: next, `CCc1ccccc1C(=O)Nc1c(NC2CC2)ncnc1-c1ccc(OC(F)(F)F)cc1` [1-257]: 100%.
The same measure, in the same setting: the same measure for `O=C(Nc1c(NC2CC2)ncnc1-c1ccc(Cn2nc(C(F)(F)F)cc2C(F)(F)F)cc1)c1cccnc1C1CC1` [1-252]: 100%; for `CCc1ncccc1C(=O)Nc1c(NC2CC2)ncnc1-c1ccc(Oc2cccc(C(F)(F)F)n2)cc1` [1-312]: 100%.
Still for that read-out and setting: next, `CCc1ncccc1C(=O)Nc1c(NC2CC2)nc(Cl)nc1-c1ccc(F)cc1` [1-326]: 100%.
Take `O=C(Nc1c(NC2CC2)nc(C(F)(F)F)nc1-c1ccc(F)cc1)c1cccnc1CC(F)(F)F` [1-324]: the insecticidal activity amounted to 100%.
The molecule `CCCc1ncccc1C(=O)Nc1c(NC2CC2)ncnc1-c1ccc(Cl)cc1Cl` [1-244] registered an insecticidal activity of 100%.
On the same count and under the same terms, the same measure for `O=C(Nc1c(NC2CC2)ncnc1-c1ccc(Cn2nc(C(F)(F)F)nc2C(F)(F)F)cc1)c1cccnc1C1CC1` [1-259]: 100%.
The same measure, in the same setting: next, `CCc1ccccc1C(=O)Nc1c(NC2CC2)ncnc1-c1ccc(Cn2nc(C(F)(F)F)nc2C(F)(F)F)cc1` [1-265]: 100%; `CCc1ncccc1C(=O)Nc1c(NC2CC2)ncnc1-c1ccc(Oc2ncccc2C(F)(F)F)cc1` [1-311]: 100%.
On the same count and under the same terms, next, `CCc1ncccc1C(=O)Nc1c(NC2CC2)ncnc1-c1ccc(Cn2nc(C(F)(F)F)nc2C(F)(F)F)cc1` [1-258]: 100%.
On to `CCc1ccccc1C(=O)Nc1c(NC2CC2)ncnc1-c1ccc(Cn2cnc(C(F)(F)F)n2)cc1` [1-286], for which the insecticidal activity is recorded as 100%.
Same read-out and setting: the same measure for `O=C(Nc1c(NC2CC2)ncnc1-c1ccc(F)cc1)c1cccnc1C1CC1` [1-235]: 100%; for `CCc1ncccc1C(=O)Nc1c(NC2CC2)ncnc1-c1ccc(Cn2ccc(C(F)(F)C(F)(F)F)n2)cc1` [1-266]: 100%.
As for `CCc1ncccc1C(=O)Nc1c(NC2CC2)ncnc1-c1ccc(C(F)(C(F)(F)F)C(F)(F)F)cc1` [1-232], the insecticidal activity turned out to be 100%.
In turn, `CCc1ncccc1C(=O)Nc1c(NC2CC2)nc(C(F)(F)F)nc1-c1ccc(F)cc1F` [1-314] came in with an insecticidal activity of 100%.
Still for that read-out and setting: the same measure for `O=C(Nc1c(NC2CC2)ncnc1-c1ccc(OC(F)(F)F)cc1)c1cccnc1C1CC1` [1-243]: 100%; for `CCc1ncccc1C(=O)Nc1c(Cl)ncnc1Nc1ccc(F)cc1` [5-2]: 100%; for `CCCc1ncccc1C(=O)Nc1c(NC2CC2)ncnc1-c1ccccc1` [1-237]: 100%.
On the same count and under the same terms, next, `CCc1ncccc1C(=O)Nc1c(NC2CC2)ncnc1-c1ccc(Cn2nc(C(F)(F)C(F)(F)F)cc2C(F)(F)C(F)(F)F)cc1` [1-269]: 100%; `CCc1ncccc1C(=O)Nc1c(NC2CC2)ncnc1-c1ccc(Cc2nc(C(F)(F)C(F)(F)C(F)(F)F)n(C)n2)cc1` [1-318]: 100%; `CCc1ncccc1C(=O)Nc1c(NC2CC2)ncnc1-c1ccc(Oc2ncc(C(F)(F)F)cc2Cl)cc1` [1-310]: 100%.
The same measure, in the same setting: next, `O=C(Nc1c(NC2CC2)ncnc1-c1ccccc1)c1cccnc1C1CC1` [1-234]: 100%; `CCc1ncccc1C(=O)Nc1c(NC2CC2)ncnc1-c1ccc(Cn2nc(C(F)(F)C(F)(F)F)cc2C(F)(F)F)cc1` [1-247]: 100%; `N#Cc1ccc(-c2ncnc(NC3CC3)c2NC(=O)c2cccnc2C2CC2)cc1` [1-242]: 100%.
Molecule `CCc1ncccc1C(=O)Nc1c(NC2CC2)ncnc1-c1ccc(Cc2n[nH]c(C(F)(F)C(F)(F)C(F)(F)F)n2)cc1` [1-319] displayed an insecticidal activity of 100%.
In turn, `CCCc1ncccc1C(=O)Nc1c(NC2CC2)ncnc1-c1ccc(Cn2nc(C(F)(F)F)nc2C(F)(F)F)cc1` [1-264] gave an insecticidal activity of 100%.
On the same count and under the same terms, next, `CCCc1ncccc1C(=O)Nc1c(NC2CC2)ncnc1-c1ccc(F)cc1` [1-238]: 100%; `CCc1ncccc1C(=O)Nc1c(NC2CC2)ncnc1-c1ccc(Cn2ccc(C(F)(F)C(F)(F)C(F)(F)F)n2)cc1` [1-267]: 100%.
The same measure, in the same setting: next, `O=C(Nc1c(NC2CC2)ncnc1-c1ccc(Cn2nc(C(F)(F)C(F)(F)F)cc2C(F)(F)F)cc1)c1cccnc1C1CC1` [1-253]: 100%; `CCCc1ncccc1C(=O)Nc1c(NC2CC2)ncnc1-c1ccc(F)cc1F` [1-245]: 100%; `O=C(Nc1c(NC2CC2)ncnc1-c1ccc(F)cc1F)c1cccnc1CC(F)(F)F` [1-254]: 100%.
On the same count and under the same terms, the same measure for `O=C(Nc1c(NC2CC2)ncnc1-c1ccc(Cl)cc1)c1cccnc1C(F)(F)C(F)(F)F` [1-241]: 100%; for `CCc1ncccc1C(=O)Nc1c(NC2CC2)ncnc1-c1ccc(Cn2nc(C(F)(F)F)cc2C(F)(F)F)cc1` [1-268]: 100%; for `CCc1ncccc1C(=O)Nc1c(NC2CC2)nc(C(F)(F)F)nc1-c1ccc(F)cc1` [1-313]: 100%.
As to `O=C(Nc1c(NC2CC2)ncnc1-c1ccc(Cl)cc1)c1cccnc1C1CC1` [1-236], the insecticidal activity was found to be 100%.
As to `CCCc1ncccc1C(=O)Nc1c(NC2CC2)ncnc1-c1ccc(C#N)cc1` [1-246], the insecticidal activity turned out to be 100%.
On the same count and under the same terms, next, `CCCc1ncccc1C(=O)Nc1c(NC2CC2)ncnc1-c1ccc(Cl)cc1` [1-239]: 100%.

What is called chromatographic logP is lipophilicity estimated from chromatographic retention. Low readings indicate lower lipophilicity, high ones higher lipophilicity. A word on the mortality: it is the percentage killed.
